In US20080004561A1, “Method for Treating Oncological, Virulent and Somatic Diseases, Method for Controlling Treatment Efficiency, Pharmaceutical Agents and Composition for Carrying Out Said Treatment” (priority 2005, published 2008):

Tests used:
[1] = system: Erlich carcinoma; experiment: Combined use of DNase and Doxorubicin, Erlich tumor growth (Example 3); format: in vivo, mice; conditions: Doxorubicin 2 mg/kg intravenously once a day and/or DNase 0.5 mg/kg intraperitoneally four times a day, day 3 to 7; 7th day after transplantation
Experimental: Bovine pancreatic DNase I (Fermentas) and human recombinant DNase […]) were used. DNase I solution for injections were prepared by dissolving of DNase matrix solution in sterile phosphate buffer directly before administration. […] Blood plasma DNA of tumor-bearing mice was received according to technique described above. Highly metastatic and low metastatic stains of mice' Luice lung carcinoma and Erlich carcinoma were used. […] For tumor induction in mice, cells were cultivated until the monolayer, than were detached with trypsin-EDTA solution. Cells were washed trice by centrifuging in phosphate buffer and were resuspensed until their concentration have become 0.5×10^7/ml. Viability was defined by inclusion of methylene blue in hemocytometer. […] Mice of C57B1 line and white not thoroughbred mice from “Rappolovo” animal house were used. Weight of animals was 24-26 grams. Animals were contained in cages, for 6-7 mice per one cage on a standard diet without water restriction. LLC cells in dose of 5×10^5 in 100 mkl of phosphate buffer were injected in soft tissues of thigh. […] Group 1-10 mice transplanted with Erlich carcinoma (control). Group 2-10 mice replanted with Erlich carcinoma. […] Group 3-10 mice replanted with Erlich carcinoma. […] Group 4-10 mice replanted with Erlich carcinoma. […] Results of experiments were estimated according to tumor's growth inhibition (TGI) that were expressed in percents to control data received at last day of DNase injection with standard formula using.

[2] = system: Erlich carcinoma; experiment: Inhibition of Erlich tumor growth by different schemes of DNase administration (Example 2); format: in vivo, mice; conditions: day 3 to 7, 7 day after transplantation
Experimental: (§1) Bovine pancreatic DNase I (Fermentas) and human recombinant DNase I (Dornase; Gentech) were used. DNase I solution for injections were prepared by dissolving of DNase matrix solution in sterile phosphate buffer directly before administration. Cyclophosphamide and Doxorubicin were dissolved according to instruction.
(§2) Blood plasma DNA of tumor-bearing mice was received according to technique described above. Highly metastatic and low metastatic stains of mice' Luice lung carcinoma and Erlich carcinoma were used. Cells were cultivated in RPMI-1640 media with adding of 10% embryonic calf serum, 1% penicillin—streptomycin in 5% carbon dioxide atmosphere. For tumor induction in mice, cells were cultivated until the monolayer, than were detached with trypsin-EDTA solution. Cells were washed trice by centrifuging in phosphate buffer and were resuspensed until their concentration have become 0.5×10^7/ml. Viability was defined by inclusion of methylene blue in hemocytometer. Suspensions that contained 95% of viable cells were used for administration to animals.
(§3) Mice of C57B1 line and white not thoroughbred mice from “Rappolovo” animal house were used. Weight of animals was 24-26 grams. Animals were contained in cages, for 6-7 mice per one cage on a standard diet without water restriction. LLC cells in dose of 5×10^5 in 100 mkl of phosphate buffer were injected in soft tissues of thigh. Erlich tumor was subcutaneously replanted on the right side by injection of 0.2 ml 10% cells' suspension in isotonic sodium chloride solution.
In our experiments DNA circulating in blood plasma of patients was the therapeutic target of DNase. Prolonged presence of DNase in blood plasma at catalytically effective concentrations is essential for provision of maximal therapeutic effect.
(§4) Group 1—10 mice transplanted with Erlich carcinoma (control).
(§5) Group 2—10 mice transplanted with Erlich carcinoma. Mice were intraperitoneally injected with DNase at 1 mg/kg dose in […] of phosphate buffer twice a day starting from 3 up to 7 day after tumor transplantation.
Group 3—10 mice transplanted with Erlich carcinoma. Mice were intraperitoneally injected with DNase at 0.5 mg/kg dose in […] of phosphate buffer four times a day starting from 3 up to 7 day after tumor transplantation.

[3] = system: LLC tumor (highly metastatic strain); experiment: DNase I influence on life span of mice transplanted with LLC tumor, highly metastatic strain (Example 16); format: in vivo, C57B1 mice; conditions: for Tumor's growth at the last day of DNase treatment: DNase 1 mg/kg two times a day, growth renewed after withdrawal; for 30 day (number of alive\number of dead in group) / 50 day (number of alive\number of dead in group): DNase 1 mg/kg intraperitoneally two times a day
Experimental: Five groups of LLC transplanted mice participated in the experiment.
Group 1—7 mice (control).
Group 2—6 mice were treated with intraperitoneal administration of DNase at 1 mg/kg dose two times a day starting from 3 up to 7 day after tumor transplantation.
Group 3—6 mice were treated with intraperitoneal administration of DNase at 1 mg/kg dose two times a day starting from 3 up to 10 day after tumor transplantation.
Group 4—6 mice were treated with intraperitoneal administration of DNase at 1 mg/kg dose two times a day starting from 3 up to 15 day after tumor transplantation.
Group 5—6 mice were treated with intraperitoneal administration of DNase at 1 mg/kg dose two times a day starting from 3 up to 18 day after tumor transplantation.
Results of experiment were estimated according to animals' survival on the 30 and 50 day after tumor transplantation.

[4] = system: Escherichia coli ATCC25922; experiment: Influence of DNase on bacterial biofilm formation on glass (Example 4); format: cell-based
Experimental: (§6) For estimation of possible mechanisms of DNase action on bacteria' interactions with host's organism we have estimated its influence on biofilm formation.
(§7) Experiments were performed on biofilm models, received at laboratory cultivation on the surface of glass. Non-relative Gram-positive (Staphylococcus aureus VT-209) and Gram-negative (Escherichia coli ATCC25922) bacteria were used.
(§8) Bacteria were sowed at 10^9 bacteria/ml concentrations and were incubated at 37° C. during 72 hours on synthetic M9 media that contains additives necessary for used bacteria strains. DNase was added in amount of 100 mkg/ml right after bacteria' inoculation. Identical volume of phosphate buffer was added to control. Selective vials were taken for analysis every 24 hours.
(§9) Glasses were washed by PBS buffer, fixed, stained with methylene blue and studied with the use of light microscopy.

[5] = system: Staphylococcus aureus VT-209; experiment: as above; format: cell-based
Experimental: as §6, §7, §8, §9

[6] = system: Erlich carcinoma; experiment: Influence of DNase administrated twice a day on Erlich tumor growth at mice (Example 1); format: in vivo; conditions: day 3 to 7, 7 day after transplantation
Experimental: as §1, §2, §3
Influence of DNase I Administrated Twice a Day on Erlich Tumor Growth at Mice
as §4, §5
Group 3—10 mice transplanted with Erlich carcinoma. Mice were intraperitoneally injected with DNase at 2 mg/kg dose in […] of phosphate buffer twice a day starting from 3 up to 7 day after tumor transplantation.

[7] = DNase 0.5 mg/kg intraperitoneally four times a day
[8] = DNase 1 mg/kg intraperitoneally twice a day
[9] = DNase 100 mkg/ml added right after inoculation, 37° C., 72 hours, M9 media, light microscopy
[10] = DNase 100 mkg/ml, control sowings from vials
[11] = DNase 2 mg/kg intraperitoneally twice a day

DNase
T% (tumor's growth inhibition) [1]: 78%
Tumor's volume [1]: 20 +/− 6
T% (tumor's growth inhibition) [2, 7]: 76%
Tumor's volume [2, 7]: 23 +/− 6
T% (tumor's growth inhibition) [2, 8]: 67%
Tumor's volume [2, 8]: 32 +/− 6
Tumor's growth at the last day of DNase treatment ([3]; 2nd group, day 3 to 7): significant inhibition of tumor's growth
Tumor's growth at the last day of DNase treatment ([3]; 3rd group, day 3 to 10): significant inhibition of tumor's growth
30 day (number of alive\number of dead in group) ([3]; day 3 to 7): 0-6
50 day (number of alive\number of dead in group) ([3]; day 3 to 7): 0-6
30 day (number of alive\number of dead in group) ([3]; day 3 to 10): 3-6
50 day (number of alive\number of dead in group) ([3]; day 3 to 10): 0-6
50 day (number of alive\number of dead in group) ([3]; day 3 to 15): 3-3
Inhibition of tumor growth at day 18 ([3]; DNase 1 mg/kg two times a day from 3rd up to 18th day): more than 95%
Biofilm formation [4, 9]: normal biofilm was not formed
Colony-forming units (CFU) in comparison with controls [4, 10]: no death of cells
Biofilm formation [5, 9]: normal biofilm was not formed
Colony-forming units (CFU) in comparison with controls [5, 10]: no death of cells
TGI % [6, 8]: 61%
Tumor's volume [6, 8]: 33 +/− 6
TGI % [6, 11]: 60%
Tumor's volume [6, 11]: 34 +/− 7
